Measured values reported in patent US7795252B2, “Rapamycin analogues and the uses thereof in the treatment of neurological, proliferative, and inflammatory disorders” (Pfizer Inc., priority 2004, dated 2010).
Read-outs that look alike come from different tables or passages of the source.

Assays:
Format in all cases: cell-based
[1] = system: Dissociated cortical neuron cultures; experiment: cortical neuron assay (neurite outgrowth); details: Cortical neurone, rat E15 cortical neurons, compound for 72 hours, read-out: EC50 in cortical neuron assays
Procedure: Dissociated cortical neuron cultures were prepared as previously described (Pong et al., 2001). Briefly, embryonic day 15 rat fetuses were collected and dissected in ice-cold PBS. Dissected cortices were pooled together and transferred to an enzymatic dissociation medium containing papain. After 30 minutes, the tissue was mechanically triturated with a fire-polished glass Pasteur pipette. Single-cell suspensions in complete media were seeded on poly-L-ornithine and laminin coated 96-well plates. After 24 hours, cultures were treated with various concentrations of compound for 72 hours. The cultures were then fixed and stained with an anti-tubulin primary antibody (TUJ-1) and a fluorescent-tagged secondary antibody. Neurite outgrowth was determined by using the Enhanced Neurite Outgrowth (ENO) algorithm with the Cellomics ArrayScan and expressed as average neurite length or total neurite length per cell.

[2] = system: Mesencephalic dopaminergic neuron cultures; experiment: dopaminergic (3H-dopamine) uptake assay after MPP+ exposure; details: rat E15 mesencephalic dopaminergic neurons, read-out: EC50 in dopaminergic uptake assays
Procedure: Mesencephalic dopaminergic neuron cultures were prepared as described in Pong et al., J. Neurochem. 69: 986-994, 1997, which is incorporated herein by reference in its entirety. Embryonic day 15 (E15) rat fetuses were collected and dissected in ice-cold phosphate-buffered saline (PBS). The ventral piece of tissue compromising the mesencephalic dopaminergic region was dissected out. Dissected pieces of tissue were pooled together and transferred to an enzymatic dissociation medium containing 20 IU/mL papain in Earle's balanced salt solution (Worthington Biochemical, Freehold, N.J., USA) and incubated for 60 minutes at 37° C. After enzymatic dissociation, the papain solution was aspirated and the tissue mechanically triturated with a fire-polished glass Pasteur pipette in complete medium (equal volumes of minimum essential medium (MEM) and F-12 nutrient mixture (GibcoBRL) supplemented with 0.1 mg/mL apotransferrin and 2.5 μg/mL insulin) containing 2,000 IU/mL DNase and 10 mg/mL ovomucoid protease inhibitor.
For dopamine uptake experiments, single-cell suspensions in complete media were seeded on poly-L-ornithine and laminin coated 24-well plates. The cultures were maintained for seven days prior to experimentation. Cultures were pretreated with various concentrations of the compound for 24 hours, then exposed to 10 mM MPP+ for 1 hour. Following the 1 hour incubation, media was exchanged three times and fresh compound was added for an additional 48 hours.
After 48 hours growth of mesencephalic dopaminergic neuron cultures following MPP+ exposure, high-affinity 3H-dopamine uptake was performed using a modified method described by Prochiantz et al., Nature 293: 570-572, 1981, which is incorporated herein by reference. Cultures were washed with pre-warmed PBS containing 5.6 mM glucose and 1 mM ascorbic acid. Cultures were then incubated for 15 minutes at 37° C. with 50 nM 3H-dopamine (31 Ci/mmol, DuPont-NEN, Wilmington, Del., USA). The cultures were washed twice with buffer and lysed with 0.5 N NaOH. The lysate was transferred to a scintillation vial containing Ultima Gold scintillation cocktail and radioactivity was determined with a liquid scintillation counter. Alternatively, culture lysates can be washed twice with buffer, incubated for 2 hours at room temperature with Optiphase Supermix scintillation cocktail (Wallac Scintillation Products, Gaithersburg, Md., USA), and radioactivity measured with a liquid scintillation counter.

[3] = system: Spinal cord neuron cultures; experiment: spinal cord neuron assay; details: rat E15 spinal cord neurons, compound for 72 h, read-out: EC50 in spinal cord neuron assays
Procedure: Spinal cord neuron cultures were prepared from embryonic day 15 (E15) rat embryos (Sprague-Dawley, Charles River Laboratories, Wilmington, Mass.). The embryos were collected and their spinal cords were removed in ice-cold phosphate-buffered saline (PBS) without Ca^2+ and Mg^2+. Dissected pieces of spinal cord tissue were pooled together and transferred to an enzymatic dissociation media containing 20 IU/mL papain in Earle's balanced salt solution (Worthington Biochemical, Freehold, N.J.) and incubated for 30 minutes at 37° C. After enzymatic dissociation, the papain solution was aspirated and the tissue mechanically triturated with a fire-polished Pasteur pipette in complete media [Neurobasal Medium with B-27 supplement (Gibco, Grand Island, N.Y.), 100 IU/mL penicillin, 100 μg/mL streptomycin, 3.3 μg/mL aphidicolin, 0.5 mM glutamate] containing 2,000 IU/mL DNase and 10-mg/mL ovomucoid protease inhibitor. Single-cell suspensions in complete media were plated on pre-coated poly-L-ornithine/laminin 96-well plates (Becton-Dickinson, Bedford, Mass.) at a density of 1.0×10^4 cells/well. Spinal cord neurons were maintained for 24 h then exposed to vehicle or various concentrations of compound for 72 h.

`CO[C@H]1C[C@@H]2CC[C@@H](C)[C@@](O)(O2)C(=O)C(=O)N2CCCC[C@H]2C(=O)O[C@H]([C@H](C)C[C@@H]2CC[C@@H](OC(=O)C(C)(CO)CO)[C@H](OC)C2)CC(=O)[C@H](C)/C=C(\C)[C@@H](O)[C@@H](OC)C(=O)[C@H](C)C[C@H](C)/C=C/C=C/C=C/1C` [CCI-779, reference compound] gave an EC50 [1] of over 1000 nM and an EC50 ([2]; Neuron) of over 1000 nM.
`CO[C@H]1C[C@@H]2CC[C@@H](C)[C@@](O)(O2)C(=O)C(=O)N2CCCC[C@H]2C(=O)O[C@H]([C@H](C)C[C@@H]2CC[C@@H](OC(=O)C(C)(C)Cc3ccccn3)[C@H](OC)C2)CC(=O)[C@H](C)/C=C(\C)[C@@H](O)[C@@H](OC)C(=O)[C@H](C)C[C@H](C)C2C=CC(/C=C/1C)ON2c1ccccc1` [Example 6, 9,27-dihydroxy-3-{-2-[4-hydroxy-3-methoxycyclohexyl]-1-methylethyl}-10,21-dimethoxy-6,8,12,14,20,26-hexamethyl-37-phenyl-4,9,10,12,13,14,15,18,21,22,23,24,25,26,27,32,33,34,34a-nonadecahydro-3H-23,27-epoxy-18,15-(epoxyimino)pyrido[2,1-c][1,4]oxazacyclohentriacontine-1,5,11,28,29(6H,31H)-pentone ester with-2,2-dimethyl-3-(pyridin-2-yl)-propionic acid] gave an EC50 ([2]; Neuron) of under 1000 nM and an EC50 [3] of under 1000 nM.
Work on `CO[C@H]1C[C@@H]2CC[C@@H](C)[C@@](O)(O2)C(=O)C(=O)N2CCCC[C@H]2C(=O)O[C@H]([C@H](C)C[C@@H]2CC[C@@H](O)[C@H](OC)C2)CC(=O)[C@H](C)/C=C(\C)[C@@H](O)[C@@H](OC)C(=O)[C@H](C)C[C@H](C)/C=C/C=C/C=C/1C` [rapamycin] yielded an EC50 [1] of over 1000 nM and an EC50 ([2]; Neuron) of over 1000 nM.
For Rapamycin phenyltriazolinedione, the EC50 [2] was under 1000 nM.
